The results in this text go back to patent publication US6316485A, “1,5-diphenylpyrazole derivatives” (Fujisawa Pharmaceutical Co., Ltd., priority 1997, dated 2001).

In one experiment the target is T1, Human COX-I (Homo sapiens, UniProt P23219).
T1 construct: made in house; host or cells: stably transfected Chinese hamster ovary (CHO) cells; 1700×g supernatant of sonicated cells used as crude enzyme
The experiment is described as follows: Human recombinant COX-I activity in vitro (PGE2 formation, radioimmunoassay). It is filed as biochemical. The following applies: recombinant human COX-I expressed in CHO cells; arachidonic acid 10 μM; PGE2 by radioimmunoassay. As for the experimental part:
(§1) a. Preparation of the recombinant cyclooxygenase (COX)
(§2) The human cyclooxygenase COX-I and COX-II were expressed in transfected Chinese hamster ovary (CHO) cells. Monolayer cultures of semi-confluent CHO cells stably expressing COX-I and COX-II were washed twice and scraped into phosphate buffered saline (PBS). The cells were centrifuged at 200×g for 5 minutes and the cell pellet was sonicated in reaction buffer containing 100 mM Tris-HCl (pH 7.4), 2 μM hematin and 5 mM tryptophan. Broken cells were centrifuged for 5 minutes at 1700×g at 4° C. and the supernatants were used as crude enzymes.
(§3) Cyclooxygenase activities in the absence or presence of inhibitors were measured by determining the level of prostaglandin E2 (PGE2) synthesis from arachidonic acid. Enzymes (1 μg for COX-I and/or 3 μg for COX-II) in a total volume of 200 μl of reaction buffer were incubated in the absence and presence of various concentrations of inhibitors for 5 minutes at 30° C. The reaction was then started by the addition of arachidonic acid to the final concentration of 10 μM. The reaction was terminated by 50 μl of HCl (1N) after incubation at 30° C. for 5 minutes. PGE2 was extracted with ethyl acetate, concentrated under a stream of nitrogen and analyzed by a radio immunoassay kit (Amersham) according to the manufacture's instructions.
(§4) b. Assay for human recombinant COX-I and COX-II activity
(§5) COX activity was assayed as PGE2 formation using radioimmunoassay to detect the prostaglandin release. The appropriate COX enzyme was incubated in 0.1 M Tris-HCl buffer (pH 7.3) containing hematin and tryptophan with the addition of arachidonic acid (10 μM) for 5 minutes at 37° C. Compounds were pre-incubated with the enzyme for 5 minutes prior to the addition of arachidonic acid. Any reaction between the arachidonic acid and the enzyme was stopped after 5 minutes at 37° C. by addition of 20 μl of 1N HCl. PGE2 formation was measured by radioimmunoassay (Amersham).

Another experiment concerns the target T2, Human COX-II (Homo sapiens, UniProt P35354).
T2 construct: made in house; host or cells: stably transfected Chinese hamster ovary (CHO) cells; 1700×g supernatant of sonicated cells used as crude enzyme
T2 sequence (P35354 18-604): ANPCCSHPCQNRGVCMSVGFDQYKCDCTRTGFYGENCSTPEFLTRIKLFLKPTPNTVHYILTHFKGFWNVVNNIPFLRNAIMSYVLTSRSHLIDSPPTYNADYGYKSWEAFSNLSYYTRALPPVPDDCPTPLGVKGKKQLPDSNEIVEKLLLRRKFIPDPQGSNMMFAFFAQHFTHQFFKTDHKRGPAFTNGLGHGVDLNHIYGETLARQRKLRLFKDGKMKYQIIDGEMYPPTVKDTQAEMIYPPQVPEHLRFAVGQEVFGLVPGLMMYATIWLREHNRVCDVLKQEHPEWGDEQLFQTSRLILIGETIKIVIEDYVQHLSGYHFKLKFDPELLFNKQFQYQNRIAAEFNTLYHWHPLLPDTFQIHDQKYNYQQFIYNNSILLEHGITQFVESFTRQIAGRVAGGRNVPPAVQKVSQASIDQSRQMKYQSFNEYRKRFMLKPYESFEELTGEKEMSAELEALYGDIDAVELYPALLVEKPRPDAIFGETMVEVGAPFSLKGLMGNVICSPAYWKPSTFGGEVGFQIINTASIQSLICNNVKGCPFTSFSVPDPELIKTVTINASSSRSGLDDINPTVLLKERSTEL
The experiment is described as follows: Human recombinant COX-II activity in vitro (PGE2 formation, radioimmunoassay). The class given is biochemical. Particulars: recombinant human COX-II expressed in CHO cells; arachidonic acid 10 μM; PGE2 by radioimmunoassay. As for the experimental part:
as §1, §2, §3, §4, §5

Experiment [1] relates to Adjuvant Arthritis in Rats. The experiment is described as follows: Effect on Adjuvant Arthritis in Rats (antiinflammatory activity). The class given is in vivo, female Sprague-Dawley rats. The following applies: 1.0 mg/kg, orally once a day for 23 days; paw volume on day 23 vs vehicle-treated controls.

Bounds are passed on as bounds.

T1 sequence (P23219 24-599): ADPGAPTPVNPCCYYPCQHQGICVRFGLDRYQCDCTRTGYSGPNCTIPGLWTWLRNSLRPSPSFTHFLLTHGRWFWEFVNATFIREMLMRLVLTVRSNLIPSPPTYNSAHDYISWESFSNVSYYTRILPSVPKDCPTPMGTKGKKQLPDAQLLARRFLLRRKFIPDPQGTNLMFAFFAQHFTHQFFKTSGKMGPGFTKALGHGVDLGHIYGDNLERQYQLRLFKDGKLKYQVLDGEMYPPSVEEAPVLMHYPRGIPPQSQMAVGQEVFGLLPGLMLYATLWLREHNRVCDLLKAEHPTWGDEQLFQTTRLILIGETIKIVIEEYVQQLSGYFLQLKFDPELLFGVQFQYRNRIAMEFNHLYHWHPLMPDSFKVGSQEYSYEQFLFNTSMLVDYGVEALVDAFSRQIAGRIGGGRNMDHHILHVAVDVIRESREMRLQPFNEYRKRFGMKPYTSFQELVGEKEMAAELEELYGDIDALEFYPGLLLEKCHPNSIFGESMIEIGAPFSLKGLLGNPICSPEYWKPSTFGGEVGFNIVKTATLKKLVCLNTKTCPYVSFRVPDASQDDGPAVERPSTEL

Consider `Cc1cc(-n2nc(C#N)cc2-c2ccc(S(C)(=O)=O)cc2)ccc1F` [Example 6, 1-(4-fluoro-3-methylphenyl)-5-[4-(methylsulfonyl)phenyl]pyrazole-3-carbonitrile], for which the figures for the IC50 on Human COX-I and at Human COX-II were > 100 µM and < 1000 nM, respectively.

Take `COc1ccc(-n2nc(Cl)cc2-c2ccc(S(C)(=O)=O)cc2)cc1Cl` [10-(8), 3-Chloro-1-(3-chloro-4-methoxyphenyl)-5-[4-(methylsulfonyl)phenyl]pyrazole]: the IC50 is > 100 µM at Human COX-I and < 1000 nM on Human COX-II. Also, the “Inhibition of secondary lesion (uninjected paw)” value in experiment [1] was ≥ 60%.

On to `Cc1ccc(-n2nc(C(F)F)cc2-c2ccc(S(C)(=O)=O)cc2)cc1Br` [3-(16), 1-(3-Bromo-4-methylphenyl)-3-(difluoromethyl)-5-[4-(methylsulfonyl)phenyl]pyrazole], for which the values for the IC50 at Human COX-I and on Human COX-II were > 100 µM and < 1000 nM, respectively.

Take `Cc1cccc(-n2nc(C(F)(F)F)cc2-c2ccc(S(C)(=O)=O)cc2)c1` [Example 1, 1-(3-methylphenyl)-5-[4-(methylsulfonyl)phenyl]-3-(trifluoromethyl)pyrazole]: the “Inhibition of secondary lesion (uninjected paw)” value in experiment [1] is on record as ≥ 60%.

Broadly, the IC50 is the midpoint of a concentration-inhibition curve.
